Target: T1, NR0B1 (Homo sapiens, UniProt P51843)
T1 construct: H460 cells or H460 cells expressing luciferase in a 10 cm plate were incubated with indicated compounds; endogenous in cells; host or cells: H460 (NSCLC, KEAP1-mutant)
T1 sequence (P51843 1-470): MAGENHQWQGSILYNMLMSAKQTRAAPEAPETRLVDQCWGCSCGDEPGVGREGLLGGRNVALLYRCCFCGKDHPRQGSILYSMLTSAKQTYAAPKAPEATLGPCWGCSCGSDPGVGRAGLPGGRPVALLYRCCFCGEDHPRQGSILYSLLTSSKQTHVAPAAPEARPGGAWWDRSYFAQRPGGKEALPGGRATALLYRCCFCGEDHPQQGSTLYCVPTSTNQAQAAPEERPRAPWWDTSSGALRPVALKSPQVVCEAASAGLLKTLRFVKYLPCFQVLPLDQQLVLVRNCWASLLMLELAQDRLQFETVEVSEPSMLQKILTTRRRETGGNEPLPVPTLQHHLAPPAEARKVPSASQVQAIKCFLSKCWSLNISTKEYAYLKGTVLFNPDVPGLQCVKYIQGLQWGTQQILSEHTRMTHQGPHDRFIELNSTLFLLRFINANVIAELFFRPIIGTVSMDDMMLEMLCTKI
Assay: isoTOP-ABPP of compound-treated H460 cells: NR0B1
Assay type: cell-based
Conditions: for receptor occupancy at 40 µM: NCI-H460, 40 μM for 3 h, read-out: target occupancy of C274 of NR0B1
Experimental: For analysis of NR0B1 ligands or control compound reactivity, H460 cells or H460 cells expressing luciferase in a 10 cm plate were incubated with indicated compounds in serum/dye-free RPMI for 3 hours at 37° C. Cells were washed once ice-cold PBS and lysed in 1% Triton X-100 dissolved in PBS with protease inhibitors (Sigma) by sonication. Samples were clarified by centrifugation for 10 min at 16,000×g. Lysate was adjusted to 1.5 mg ml^−1 in 500 μL.
Samples were labeled for 1 h at ambient temperature with 100 μM iodoacetamide alkyne (1, IA-alkyne, 5 μL of 10 mM stock in DMSO). Samples were conjugated by copper-catalyzed azide-alkyne cycloaddition (CuAAC) to isotopically labeled, TEV-cleavable tags (TEV-tags). Heavy CuAAC reaction mixtures was added to the DMSO-treated or shGFP control samples and light CuAAC reaction mixture was added to compound-treated or shNRF2 samples. The CuAAC reaction mixture consisted of TEV tags (light or heavy, 10 μL of 5 mM stocks in DMSO, final concentration=100 μM), 1 mM tris(2-carboxyethyl)phosphine hydrochloride (TCEP; fresh 50× stock in water, final concentration=1 mM), ligand (17× stock in DMSO:t-butanol 1:4, final concentration=100 μM) and 1 mM CuSO4 (50× stock in water, final concentration=1 mM). The samples were allowed to react for 1 h at which point the samples were centrifuged (16,000×g, 5 min, 4° C.). The resulting pellets were sonicated in ice-cold methanol (500 μL) and the resuspended light- and heavy-labeled samples were then combined pairwise and centrifuged (16,000×g, 5 min, 4° C.). The pellets were solubilized in PBS containing 1.2% SDS (1 mL) with sonication and heating (5 min, 95° C.) and any insoluble material was removed by an additional centrifugation step at ambient temperature (14,000×g, 1 min).
For each sample, 100 μL of streptavidin-agarose beads slurry (Fisher) was washed in 10 mL PBS and then resuspended in 6 mL PBS (final concentration 0.2% SDS in PBS). The SDS-solubilized proteins were added to the suspension of streptavidin-agarose beads and the bead mixture was rotated for 3 h at ambient temperature. After incubation, the beads were pelleted by centrifugation (1,400×g, 3 min) and were washed (2×10 mL PBS and 2×10 mL water).
The beads were transferred to eppendorftubes with 1 mL PBS, centrifuged (1,400×g, 3 min), and resuspended in PBS containing 6 M urea (500 μL). To this was added 10 mM DTT (25 μL of a 200 mM stock in water) and the beads were incubated at 65° C. for 15 mins. 20 mM iodoacetamide (25 μL of a 400 mM stock in water) was then added and allowed to react at 37° C. for 30 mins with shaking. The bead mixture was diluted with 900 μL PBS, pelleted by centrifugation (1,400×g, 3 min), and resuspended in PBS containing 2 M urea (200 μL). To this was added 1 mM CaCl2 (2 μL of a 200 mM stock in water) and trypsin (2 μg, Promega, sequencing grade) and the digestion was allowed to proceed overnight at 37° C. with shaking. The beads were separated from the digest with Micro Bio-Spin columns (Bio-Rad) by centrifugation (1,000×g, 1 min), washed (2×1 mL PBS and 2×1 mL water) and then transferred to fresh eppendorf tubes with 1 mL water. The washed beads were washed once further in 140 μL TEV buffer (50 mM Tris, pH 8, 0.5 mM EDTA, 1 mM DTT) and then resuspended in 140 μL TEV buffer. 5 μL TEV protease (80 μM) was added and the reactions were rotated overnight at 29° C. The TEV digest was separated from the beads with Micro Bio-Spin columns by centrifugation (1,400×g, 3 min) and the beads were washed once with water (100 μL). The samples were then acidified to a final concentration of 5% (v/v) formic acid and stored at −80° C. prior to analysis.
Samples processed for multidimensional liquid chromatography tandem mass spectrometry (MudPIT) were pressure loaded onto a 250 μm (inner diameter) fused silica capillary columns packed with C18 resin (Aqua 5 μm, Phenomenex). […]

engagement of C274 of NR0B1 (NSCLC cells, 40 μM, 3 h)	cysteines in NR0B1 engaged among several quantified cysteines (40 μM, 3 h)	receptor occupancy at 40 µM (NSCLC cells) [%]	relative potency of C274 engagement (NSCLC cells)	engagement of C274 (NSCLC cells, 5 μM, 3 h) [%]	Compound	BPK-29-competed isoTOP-ABPP analysis (NR0B1 C274, 40 μM)
did not engage C274	–	–	–	–	O=C(c1ccc(N2CCOCC2)cc1)N1CCC(CN(C(=O)CCl)c2cncnc2)CC1 [BPK-9, 2-chloro-N-((1-(4-morpholinobenzoyl)piperidin-4-yl)methyl)-N-(pyrimidin-5-yl)acetamide]	–
–	the only cysteine in NR0B1 engaged	~70	–	–	O=C(CCl)N(Cc1cccc(Cl)c1F)c1ccc(Cl)nc1 [BPK-26, 2-chloro-N-(3-chloro-2-fluorobenzyl)-N-(6-chloropyridin-3-yl)acetamide]	–
–	the only cysteine in NR0B1 engaged	~70	superior potency compared to BPK-26	> 50	O=C(c1ccc(N2CCOCC2)cc1)N1CCCC(N(Cc2ccccc2)C(=O)CCl)CC1 (centres unmarked) [BPK-29, N-benzyl-2-chloro-N-(1-(4-morpholinobenzoyl)azepan-4-yl)acetamide]	Yes (Competed defined as showing R value ≥ 3.0 at 40 μM of test compound)

— US20200278355A1, “CONJUGATED PROTEINS AND USES THEREOF” (THE SCRIPPS RESEARCH INSTITUTE, priority 2017, published 2020)
